Where a name gives a salt, the structure may show the parent alone.
Test system: HMOX1
Test: HMOX1 Protein Assay (immunostaining of HO-1 in NHLF cells, GE InCell 1000)
Assay type: cell-based
Conditions: Homo sapiens, fold change above DMSO treated cells, 16 h; for fold induction at 3 µM: 3 μM compound (asterisk); for fold induction at 5 µM: 5 μM compound
Summary of the method: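 Fold induction of HO-1 over vehicle, normally at 5 μM compound (asterisk marks 3 μM), in 0.8% DMSO medium. Normal human lung fibroblasts were treated 16 h, then paraformaldehyde-fixed, anti-HO-1/Alexa 488 stained with Hoechst, and read by high-content imaging.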

Structure (SMILES) | fold induction at 3 µM | fold induction at 5 µM
C[C@@H](O)CN1CC[C@@H](NC(=O)c2ccc3c(c2)nc(Nc2nc4ccc(Cl)cc4s2)n3C)C1 [Example 296, 2-(6-Chloro-benzothiazol-2-ylamino)-1-methyl-1H-benzoimidazole-5-carboxylic acid [(R)-1-((R)-2-hydroxy-propyl)-pyrrolidin-3-yl]-amide] | 34.6 | –
C[C@@H](O)CN1CC[C@@H](NC(=O)c2ccc3c(c2)nc(Nc2nc4ccc(C(F)(F)F)cc4s2)n3C)C1 [Example 297, 1-Methyl-2-(6-trifluoromethyl-benzothiazol-2-ylamino)-1H-benzoimidazole-5-carboxylic acid [(R)-1-((R)-2-hydroxy-propyl)-pyrrolidin-3-yl]-amide] | 24.4 | –
Cn1c(Nc2nc3ccc(OC(F)(F)F)cc3s2)nc2cc(C(=O)NC3CCN(CC(C)(C)O)C3)ccc21 (centres unmarked) [Example 298, 1-Methyl-2-(6-trifluoromethoxy-benzothiazol-2-ylamino)-1H-benzoimidazole-5-carboxylic acid [1-(2-hydroxy-2-methyl-propyl)-pyrrolidin-3-yl]-amide] | – | 21.1
Cn1c(Nc2nc3ccc(Cl)cc3s2)nc2cc(C(=O)NC3CCN(CCC(=O)O)C3)ccc21 (centres unmarked) [Example 299, 3-(3-{[2-(6-Chloro-benzothiazol-2-ylamino)-1-methyl-1H-benzoimidazole-5-carbonyl]-amino}-pyrrolidin-1-yl)-propionic acid] | – | 16.7
Cn1c(Nc2nc3ccc(Cl)cc3s2)nc2cc(C(=O)NC3CCN(CCNS(C)(=O)=O)C3)ccc21 (centres unmarked) [Example 300, 2-(6-Chloro-benzothiazol-2-ylamino)-1-methyl-1H-benzoimidazole-5-carboxylic acid [1-(2-methanesulfonylamino-ethyl)-pyrrolidin-3-yl]-amide] | – | 26.2
COCCn1c(Nc2nc3ccc(Cl)cc3s2)nc2cc(C(=O)NC3CCN(CCO)CC3)ccc21 [Example 301, 2-(6-Chloro-benzothiazol-2-ylamino)-1-(2-methoxy-ethyl)-1H-benzoimidazole-5-carboxylic acid [1-(2-hydroxy-ethyl)-piperidin-4-yl]-amide] | – | 27.8
Cn1c(Nc2nc3ccc(Cl)cc3s2)nc2cc(C(=O)NCC3CCN(CCO)CC3)ccc21 [Example 303, 2-(6-Chloro-benzothiazol-2-ylamino)-1-methyl-1H-benzoimidazole-5-carboxylic acid [1-(2-hydroxy-ethyl)-piperidin-4-ylmethyl]-amide] | – | 25.6
COCCn1c(Nc2nc3ccc(Cl)cc3s2)nc2cc(C(=O)NCC3CCN(CCO)CC3)ccc21 [Example 304, 2-(6-Chloro-benzothiazol-2-ylamino)-1-(2-methoxy-ethyl)-1H-benzoimidazole-5-carboxylic acid [1-(2-hydroxy-ethyl)-piperidin-4-ylmethyl]-amide] | – | 24.7
Cn1c(Nc2nc3ccc(OC(F)(F)F)cc3s2)nc2cc(C(=O)N3CCN(CCO)CC3)ccc21 [Example 305, [4-(2-Hydroxy-ethyl)-piperazin-1-yl]-[1-methyl-2-(6-trifluoromethoxy-benzothiazol-2-ylamino)-1H-benzoimidazol-5-yl]-methanone] | – | 41.7
Cn1c(Nc2nc3ccc(Cl)cc3s2)nc2cc(C(=O)N3CCN(CCO)CC3)ccc21 [Example 306, [2-(6-Chloro-benzothiazol-2-ylamino)-1-methyl-1H-benzoimidazol-5-yl]-[4-(2-hydroxy-ethyl)-piperazin-1-yl]-methanone] | – | 38.7
Cn1c(Nc2nc3ccc(OC(F)(F)F)cc3s2)nc2cc(C(=O)N3CCC(CCCO)CC3)ccc21 [Example 307, [4-(3-Hydroxy-propyl)-piperidin-1-yl]-[1-methyl-2-(6-trifluoromethoxy-benzothiazol-2-ylamino)-1H benzoimidazol-5-yl]-methanone] | – | 31.5
CN(C)CC(=O)N1CC[C@@H](NC(=O)c2ccc3c(c2)nc(Nc2nc4ccc(Cl)cc4s2)n3C)C1 [Example 308, 2-(6-Chloro-benzothiazol-2-ylamino)-1-methyl-1H-benzoimidazole-5-carboxylic acid [(R)-1-(2-dimethylamino-acetyl)-pyrrolidin-3-yl]-amide] | – | 24.3
Cn1c(Nc2nc3ccc(Cl)cc3s2)nc2cc(C(=O)N[C@@H]3CCCNC3)ccc21 [Example 309, 2-(6-Chloro-benzothiazol-2-ylamino)-1-methyl-1H-benzoimidazole-5-carboxylic acid (R)-piperidin-3-ylamide hydrochloride] | – | 21.5
Cn1c(Nc2nc3ccc(Cl)cc3s2)nc2cc(C(=O)N[C@H]3CCCNC3)ccc21 [Example 310, 2-(6-Chloro-benzothiazol-2-ylamino)-1-methyl-1H-benzoimidazole-5-carboxylic acid (S)-piperidin-3-ylamide hydrochloride] | – | 24.6
CN(C)CC(=O)N1CCC[C@@H](NC(=O)c2ccc3c(c2)nc(Nc2nc4ccc(Cl)cc4s2)n3C)C1 [Example 311, 2-(6-Chloro-benzothiazol-2-ylamino)-1-methyl-1H-benzoimidazole-5-carboxylic acid [(R)-1-(2-dimethylamino-acetyl)-piperidin-3-yl]-amide] | – | 77.3
CN(C)CC(=O)N1CCC[C@H](NC(=O)c2ccc3c(c2)nc(Nc2nc4ccc(Cl)cc4s2)n3C)C1 [Example 312, 2-(6-Chloro-benzothiazol-2-ylamino)-1-methyl-1H-benzoimidazole-5-carboxylic acid [(S)-1-(2-dimethylamino-acetyl)-piperidin-3-yl]-amide] | – | 68.8
CN(C)CC(=O)N1CCC(NC(=O)c2ccc3c(c2)nc(Nc2nc4ccc(Cl)cc4s2)n3C)CC1 [Example 313, 2-(6-Chloro-benzothiazol-2-ylamino)-1-methyl-1H-benzoimidazole-5-carboxylic acid [1-(2-dimethylamino-acetyl)-piperidin-4-yl]-amide] | – | 22.9
CN(C)CC(=O)N1CCC(CNC(=O)c2ccc3c(c2)nc(Nc2nc4ccc(Cl)cc4s2)n3C)CC1 [Example 314, 2-(6-Chloro-benzothiazol-2-ylamino)-1-methyl-1H-benzoimidazole-5-carboxylic acid [1-(2-dimethylamino-acetyl)-piperidin-4-ylmethyl]-amide] | – | 79.7
COCCn1c(Nc2nc3ccc(Cl)cc3s2)nc2cc(C(=O)NCC3CCN(C(=O)CN(C)C)CC3)ccc21 [Example 315, 2-(6-Chloro-benzothiazol-2-ylamino)-1-(2-methoxy-ethyl)-1H-benzoimidazole-5-carboxylic acid [1-(2-dimethylamino-acetyl)-piperidin-4-ylmethyl]-amide] | – | 75.7
CN1CC[C@@H](NC(=O)c2ccc3c(c2)nc(Nc2nc4ccc(Cl)cc4s2)n3C)C1 [Example 316, 2-(6-Chloro-benzothiazol-2-ylamino)-1-methyl-1H-benzoimidazole-5-carboxylic acid ((R)-1-methyl-pyrrolidin-3-yl)-amide] | – | 18.1
CN1CC[C@H](NC(=O)c2ccc3c(c2)nc(Nc2nc4ccc(Cl)cc4s2)n3C)C1 [Example 317, 2-(6-Chloro-benzothiazol-2-ylamino)-1-methyl-1H-benzoimidazole-5-carboxylic acid ((S)-1-methyl-pyrrolidin-3-yl)amide] | – | 16.3
CN1CCCCC1CNC(=O)c1ccc2c(c1)nc(Nc1nc3ccc(Cl)cc3s1)n2C (centres unmarked) [Example 318, 2-(6-Chloro-benzothiazol-2-ylamino)-1-methyl-1H-benzoimidazole-5-carboxylic acid (1-methyl-piperidin-2-ylmethyl)-amide] | – | 11.9
CN1CCC(NC(=O)c2ccc3c(c2)nc(Nc2nc4ccc(Cl)cc4s2)n3C)CC1 [Example 319, 2-(6-Chloro-benzothiazol-2-ylamino)-1-methyl-1H-benzoimidazole-5-carboxylic acid (1-methyl-piperidin-4-yl)-amide] | – | 23.9
Cn1c(Nc2nc3ccc(Cl)cc3s2)nc2cc(C(=O)NC3CCN(S(C)(=O)=O)CC3)ccc21 [Example 320, 2-(6-Chloro-benzothiazol-2-ylamino)-1-methyl-1H-benzoimidazole-5-carboxylic acid (1-methanesulfonyl-piperidin-4-yl)-amide] | – | 20
Cn1c(Nc2nc3ccc(Cl)cc3s2)nc2cc(C(=O)NN3CCOCC3)ccc21 [Example 321, 2-(6-Chloro-benzothiazol-2-ylamino)-1-methyl-1H-benzoimidazole-5-carboxylic acid morpholin-4-ylamide] | 15.3 | –
Cn1c(Nc2nc3ccc(OC(F)(F)F)cc3s2)nc2cc(C(=O)NCCNS(C)(=O)=O)ccc21 [Example 322, 1-Methyl-2-(6-trifluoromethoxy-benzothiazol-2-ylamino)-1H-benzoimidazole-5-carboxylic acid (2-methanesulfonylamino-ethyl)-amide] | – | 36
CN(C)CC(=O)NCCNC(=O)c1ccc2c(c1)nc(Nc1nc3ccc(OC(F)(F)F)cc3s1)n2C [Example 323, 1-Methyl-2-(6-trifluoromethoxy-benzothiazol-2-ylamino)-1H-benzoimidazole-5-carboxylic acid [2-(2-dimethylamino-acetylamino)-ethyl]-amide] | – | 113
CN(C)CC(=O)NCCNC(=O)c1ccc2c(c1)nc(Nc1nc3ccc(Cl)cc3s1)n2C [Example 324, 2-(6-Chloro-benzothiazol-2-ylamino)-1-methyl-1H-benzoimidazole-5-carboxylic acid [2-(2-dimethylamino-acetylamino)-ethyl]-amide] | – | 27.9
Cn1c(Nc2nc3ccc(OC(F)(F)F)cc3s2)nc2cc(C(=O)NCCNC(=O)CO)ccc21 [Example 325, 1-Methyl-2-(6-trifluoromethoxy-benzothiazol-2-ylamino)-1H-benzoimidazole-5-carboxylic acid [2-(2-hydroxy-acetylamino)-ethyl]-amide] | – | 32.4
